{"source": "paper PMC6594753", "about": "“Cystic fibrosis drug ivacaftor stimulates CFTR channels at picomolar concentrations” (eLife, 2019)", "origin": "cited, not measured here", "system": "CFTR", "parameters": "method as in Yeh et al., 2019", "details": "ref Yeh et al., 2019; cited from earlier work"}
{"smiles": "CC1(C)Cc2c(sc(NC(=O)c3ccn[nH]3)c2C(N)=O)C(C)(C)O1", "note": "[GLPG-1837]", "values": [{"measurement": "Hill coefficients of dose response curves for activation", "value": "close to unity"}]}
